Experimental data published in patent US8445501B2, “Substituted 7-carboxamido-pyrrolo[3,2-d]pyrimidines” (Takeda GmbH, priority 2008, dated 2013).

biological target: T1, human PDE5 (Homo sapiens, UniProt O76074); test: Inhibition of the type 5 phosphodiesterase (PDE5) activity, modified SPA test with platelet lysate; assay type: biochemical; conditions: PDE5 from human platelet lysate, 0.5 μM cGMP
T1 construct: from tissue; host or cells: platelets from fresh blood of human donors (lysate, 10,000 g supernatant)
How it was run: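 Human platelet lysate (10,000 g supernatant) as PDE5 source in SPA with 0.5 μM cGMP plus [3H]cGMP tracer, pH 7.4, 5 mM Mg2+, 1 μM motapizone and 10 nM PDE2 inhibitor; 10–20% conversion. 5 min preincubation, 15 min at 37 °C, stopped with SPA beads/IBMX. IC50 by non-linear regression.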

SMILES	IC50
COCCOc1cc(OC)ccc1-c1ncnc2c(C(=O)N[C@H]3CC[C@@H](NC(=O)C4(O)CC4)CC3)c[nH]c12 [Example 258, cis-4-[4-Methoxy-2-(2-methoxy-ethoxy)-phenyl]-5H-pyrrolo[3,2-d]pyrimidine-7-carboxylic acid {-[(1-hydroxy-cyclopropanecarbonyl)-amino]-cyclohexyl}-amide]	6.31 nM
CCC(=O)N[C@H]1CC[C@H](NC(=O)c2c[nH]c3c(-c4cc(F)ccc4OCC4CC4)ncnc23)CC1 [Example 88, trans-4-(2-Cyclopropylmethoxy-5-fluoro-phenyl)-5H-pyrrolo[3,2-d]pyrimidine-7-carboxylic acid (4-propionylamino-cyclohexyl)-amide]	1.66 nM
COCCOc1cc(OC)ccc1-c1ncnc2c(C(=O)N[C@H]3CC[C@H](NC(=O)COC)CC3)c[nH]c12 [Example 157, trans-4-[4-Methoxy-2-(2-methoxy-ethoxy)-phenyl]-5H-pyrrolo[3,2-d]pyrimidine-7-carboxylic acid [4-(2-methoxy-acetylamino)-cyclohexyl]-amide]	15.5 nM
CCOC(=O)N1CCC(NC(=O)c2c[nH]c3c(-c4cc(C)ccc4OCC4CC4)ncnc23)CC1 [Example 125, 4-{[4-(2-Cyclopropylmethoxy-5-methyl-phenyl)-5H-pyrrolo[3,2-d]pyrimidine-7-carbonyl]-amino}-piperidine-1-carboxylic acid ethyl ester]	1.17 nM
COCC(=O)N[C@H]1CC[C@H](NC(=O)c2c[nH]c3c(-c4ccccc4OCC4CC4)ncnc23)CC1 [Example 91, trans-4-(2-Cyclopropylmethoxy-phenyl)-5H-pyrrolo[3,2-d]pyrimidine-7-carboxylic acid [4-(2-methoxy-acetylamino)-cyclohexyl]-amide]	6.31 nM
CCCCOc1ccc2c(c1-c1ncnc3c(C(=O)NC4CCN(C=O)CC4)c[nH]c13)OCO2 [Example 146, 4-(5-Butoxy-benzo[1,3]dioxol-4-yl)-5H-pyrrolo[3,2-d]pyrimidine-7-carboxylic acid (1-formyl-piperidin-4-yl)-amide]	0.229 nM
CCCCOc1ccc2c(c1-c1ncnc3c(C(=O)N[C@@H]4CCN(C(=O)OCC)C4)c[nH]c13)OCO2 [Example 151, (R)-3-{[4-(5-Butoxy-benzo[1,3]dioxol-4-yl)-5H-pyrrolo[3,2-d]pyrimidine-7-carbonyl]amino}-pyrrolidine-1-carboxylic acid ethyl ester]	0.295 nM
O=C(N[C@H]1CC[C@H](NC(=O)C2(O)CC2)CC1)c1c[nH]c2c(-c3ccccc3OCC3CC3)ncnc12 [Example 226, trans-4-(2-Cyclopropylmethoxy-phenyl)-5H-pyrrolo[3,2-d]pyrimidine-7-carboxylic acid {4-[(1-hydroxy-cyclopropanecarbonyl)-amino]-cyclohexyl}-amide]	3.39 nM
COc1ccc(OCC2CC2)c(-c2ncnc3c(C(=O)NC4CCN(C(C)=O)CC4)c[nH]c23)c1 [Example 71, 4-(2-Cyclopropylmethoxy-5-methoxy-phenyl)-5H-pyrrolo[3,2-d]pyrimidine-7-carboxylic acid (1-acetyl-piperidin-4-yl)-amide]	1.35 nM
CC(=O)N[C@H]1CC[C@H](NC(=O)c2c[nH]c3c(-c4ccccc4OCC4CC4)ncnc23)CC1 [Example 90, trans-4-(2-Cyclopropylmethoxy-phenyl)-5H-pyrrolo[3,2-d]pyrimidine-7-carboxylic acid (4-acetylamino-cyclohexyl)-amide]	5.62 nM
CCCOc1ccc2c(c1-c1ncnc3c(C(=O)N[C@@H]4CCN(C(=O)[C@H](C)O)C4)c[nH]c13)OCO2 [Example 252, 4-(5-Propoxy-benzo[1,3]dioxol-4-yl)-5H-pyrrolo[3,2-d]pyrimidine-7-carboxylic acid [(R)-1-((S)-2-hydroxy-propionyl)-pyrrolidin-3-yl]amide]	1.2 nM
COCC(=O)N1CCC(NC(=O)c2c[nH]c3c(-c4cc(F)c(OC(F)F)cc4OCC4CC4)ncnc23)CC1 [Example 280, 4-[2-Cyclopropylmethoxy-4-(1,1-difluoro-methoxy)-5-fluoro-phenyl]-5H-pyrrolo[3,2-d]pyrimidine-7-carboxylic acid [1-(2-methoxy-ethanoyl)-piperidin-4-yl]amide]	1.74 nM
COCC(=O)N[C@H]1CC[C@H](NC(=O)c2c[nH]c3c(-c4cc(F)ccc4OCC4CC4)ncnc23)CC1 [Example 89, trans-4-(2-Cyclopropylmethoxy-5-fluoro-phenyl)-5H-pyrrolo[3,2-d]pyrimidine-7-carboxylic acid [4-(2-methoxy-acetylamino)-cyclohexyl]-amide]	1.29 nM
COCCOc1ccc2c(c1-c1ncnc3c(C(=O)NC4CCN(C(=O)C5CC5)CC4)c[nH]c13)OCO2 [Example 169, 4-[5-(2-Methoxy-ethoxy)-benzo[1,3]dioxol-4-yl]-5H-pyrrolo[3,2-d]pyrimidine-7-carboxylic acid (1-cyclopropanecarbonyl-piperidin-4-yl)-amide]	1.74 nM
C[C@H](O)C(=O)N1CC(NC(=O)c2c[nH]c3c(-c4c(OCC5CC5)ccc5c4OCO5)ncnc23)C1 [Example 196, 4-(5-Cyclopropylmethoxy-benzo[1,3]dioxol-4-yl)-5H-pyrrolo[3,2-d]pyrimidine-7-carboxylic acid [1-((S)-2-hydroxy-propanoyl)azetidin-3-yl]-amide]	0.759 nM
CCCOc1ccc2c(c1-c1ncnc3c(C(=O)NC4CCN(C(=O)[C@H](C)O)CC4)c[nH]c13)OCO2 [Example 251, 4-(5-Propoxy-benzo[1,3]dioxol-4-yl)-5H-pyrrolo[3,2-d]pyrimidine-7-carboxylic acid [1-((S)-2-hydroxy-propionyl)piperidin-4-yl]-amide]	0.363 nM
CCCOc1ccc2c(c1-c1ncnc3c(C(=O)N[C@@H]4CCN(C(=O)OCC)C4)c[nH]c13)OCO2 [Example 142, (R)-3-{[4-(5-Propoxy-benzo[1,3]dioxol-4-yl)-5H-pyrrolo[3,2-d]pyrimidine-7-carbonyl]amino}-pyrrolidine-1-carboxylic acid ethyl ester]	0.617 nM
COCCOc1cc(OC)ccc1-c1ncnc2c(C(=O)N[C@H]3CC[C@H](NC(=O)[C@H](C)O)CC3)c[nH]c12 [Example 256, trans-4-[4-Methoxy-2-(2-methoxy-ethoxy)-phenyl]-5H-pyrrolo[3,2-d]pyrimidine-7-carboxylic acid [4-((S)-2-hydroxy-propionylamino)-cyclohexyl]-amide]	12 nM
COc1cc(-c2ncnc3c(C(=O)N[C@@H]4CCCN(C(C)=O)C4)c[nH]c23)c(OCC2CC2)cc1F [Example 100, 4-(2-Cyclopropylmethoxy-4-fluoro-5-methoxy-phenyl)-5H-pyrrolo[3,2-d]pyrimidine-7-carboxylic acid ((R)-1-acetyl-piperidin-3-yl)-amide]	0.126 nM

Second part, the compound after the results:

IC50	SMILES
2.45 nM	CC(=O)N1CC[C@H](NC(=O)c2c[nH]c3c(-c4c(OCC5CC5)ccc5c4OCO5)ncnc23)C1 [Example 19, 4-(5-Cyclopropylmethoxy-benzo[1,3]dioxol-4-yl)-5H-pyrrolo[3,2-d]pyrimidine-7-carboxylic acid ((S)-1-acetyl-pyrrolidin-3-yl)-amide]
2 nM	CCOc1ccc2c(c1-c1ncnc3c(C(=O)NC4CCN(C(=O)COC)CC4)c[nH]c13)OCO2 [Example 135, 4-(5-Ethoxy-benzo[1,3]dioxol-4-yl)-5H-pyrrolo[3,2-d]pyrimidine-7-carboxylic acid [1-(2-methoxy-acetyl)piperidin-4-yl]-amide]
1.51 nM	CCCOc1ccc2c(c1-c1ncnc3c(C(=O)N[C@@H]4CCN(C(=O)COC)C4)c[nH]c13)OCO2 [Example 143, 4-(5-Propoxy-benzo[1,3]dioxol-4-yl)-5H-pyrrolo[3,2-d]pyrimidine-7-carboxylic acid [(R)-1-(2-methoxy-acetyl)-pyrrolidin-3-yl]amide]
0.191 nM	CCOC(=O)N1CC(NC(=O)c2c[nH]c3c(-c4c(OCC5CC5)ccc5c4OCO5)ncnc23)C1 [Example 42, 3-({1-[4-(5-Cyclopropylmethoxy-benzo[1,3]dioxol-4-yl)-5H-pyrrolo[3,2-d]pyrimidin-7-yl]-methanoyl}-amino)-azetidine-1-carboxylic acid ethyl ester]
0.141 nM	COCC(=O)N[C@H]1CC[C@H](NC(=O)c2c[nH]c3c(-c4c(OCC5CC5)ccc5c4OCO5)ncnc23)CC1 [Example 50, trans-4-(5-Cyclopropylmethoxy-benzo[1,3]dioxol-4-yl)-5H-pyrrolo[3,2-d]pyrimidine-7-carboxylic acid [4-(2-methoxy-acetylamino)-cyclohexyl]-amide]
0.55 nM	O=C(NCC1CCN(C(=O)CO)CC1)c1c[nH]c2c(-c3c(OCC4CC4)ccc4c3OCO4)ncnc12 [Example 186, 4-(5-Cyclopropylmethoxy-benzo[1,3]dioxol-4-yl)-5H-pyrrolo[3,2-d]pyrimidine-7-carboxylic acid [1-(2-hydroxy-ethanoyl)-piperidin-4-ylmethyl]-amide]
0.479 nM	COCC(=O)N1CCCC(CNC(=O)c2c[nH]c3c(-c4c(OCC5CC5)ccc5c4OCO5)ncnc23)C1 (stereo not shown) [Example 30, 4-(5-Cyclopropylmethoxy-benzo[1,3]dioxol-4-yl)-5H-pyrrolo[3,2-d]pyrimidine-7-carboxylic acid [1-(2-methoxy-acetyl)piperidin-3-ylmethyl]-amide]
1.1 nM	O=CN1CCC(CNC(=O)c2c[nH]c3c(-c4c(OCC5CC5)ccc5c4OCO5)ncnc23)C1 (stereo not shown) [Example 32, 4-(5-Cyclopropylmethoxy-benzo[1,3]dioxol-4-yl)-5H-pyrrolo[3,2-d]pyrimidine-7-carboxylic acid (1-formyl-pyrrolidin-3-ylmethyl)-amide]
0.0776 nM	CCC(=O)N1CCC(NC(=O)c2c[nH]c3c(-c4c(OCC5CC5)ccc5c4OCO5)ncnc23)CC1 [Example 1, 4-(5-Cyclopropylmethoxy-1,3-benzodioxol-4-yl)-5H-pyrrolo[3,2-d]pyrimidine-7-carboxylic acid (1-propionyl-piperidin-4-yl)-amide]
